Data on 34 compounds can be found in patent US5698547A, “Cephalosporin antibiotics” (Microcide Pharmaceuticals, Inc., priority 1995, dated 1997).

The subject of the experiment is S. aureus Col (Meth^R) (lac^-). The experiment can be described thus: MIC by agar dilution, S. aureus Col (Meth^R) (lac^-). It counts as cell-based. As to conditions: Staphylococcus aureus; agar dilution; S. aureus Col (Meth^R) (lac^-); read-out: MIC. The procedure, abridged:
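Agar dilution per NCCLS (1991): two-fold dilutions from 128 μg/mL down to ≤0.25 μg/mL in Mueller-Hinton agar, each level in duplicate. Spots of about 10^4 cfu of log-phase culture; 16-20 h at 35°-36° C. MIC in μg/ml is the lowest concentration inhibiting growth.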

In brackets after ≈: the same amount, converted by molar mass. Counter-ions that a name gives are not always drawn.

For the compound `O=C(Cc1ccccc1)N[C@@H]1C(=O)N2C(C(=O)O)=C(Sc3cccc(Cl)c3Cl)CS[C@H]12` [Cmpd 24, (7R)-7-[(Phenylacetyl)amino]-3-(2,3-dichlorophenylthio)-3-cephem-4-carboxylic acid], the MIC is 1 µg/mL (≈ 2.02 µM).
As for `O=C(Cc1cccs1)N[C@@H]1C(=O)N2C(C(=O)O)=C(Sc3ccnn3-c3ccccc3)CS[C@H]12` [Cmpd 116, (7R)-7-[(2-thienylacetyl)amino]-3-(1-N-phenylpyrazol-5-ylthio)-3-cephem-4-carboxylic acid], the figure is 4 µg/mL (≈ 8.02 µM).
As for `C[n+]1ccc(SCc2ccccc2SC2=C(C(=O)[O-])N3C(=O)[C@@H](NC(=O)Cc4ccccc4)[C@H]3SC2)cc1` [Cmpd 73, (7R)-7-[(Phenylacetyl)amino]-3-(2-(N-methylpyridin-4-ium)thiomethyl)phenylthio)-3-cephem-4-carboxylate, inner salt], the figure is 4 µg/mL; as for `CSCC(=O)N[C@@H]1C(=O)N2C(C(=O)O)=C(Sc3ccccc3CSC(=N)NC(=N)N)CS[C@H]12` [Cmpd 126, (7R)-7-[(methylthioacetyl)amino]-3-(2-(N-amidino)isothiouroniummethylphenylthio)-3-cephem-4-carboxylate, inner salt], 8 µg/mL; as for `O=C(CSc1ccccc1)N[C@@H]1C(=O)N2C(C(=O)O)=C(Sc3cc(Cl)ccc3Cl)CS[C@H]12` [Cmpd 35, (7R)-7-[(Phenylthioacetyl)amino]-3-(2,5-dichlorophenylthio)-3-cephem-4-carboxylic acid], 0.5 µg/mL (≈ 0.948 µM).
`C=Cc1ccccc1SC1=C(C(=O)O)N2C(=O)[C@@H](NC(=O)Cc3ccccc3)[C@H]2SC1` [Cmpd 36, (7R)-7-[(Phenylacetyl)amino]-3-(2-vinylphenylthio)-3-cephem-4-carboxylic acid]: the MIC is 2 µg/mL (≈ 4.42 µM).
As for `CC(=O)NC(=N)SCc1ccccc1SC1=C(C(=O)O)N2C(=O)[C@@H](NC(=O)Cc3ccccc3)[C@H]2SC1` [Cmpd 78, (7R)-7-[(Phenylacetyl)amino]-3-(2-N-acetylamidinothiomethylphenylthio)-3-cephem-4-carboxylic acid], the figure is 4 µg/mL (≈ 7.19 µM).
As for `N=C(N)SCc1ccccc1SC1=C(C(=O)O)N2C(=O)[C@@H](NC(=O)Cc3ccc(CN)cc3)[C@H]2SC1` [Cmpd 124, (7R)-7-[((4-aminomethylphenyl)acetyl)amino]-3-(2-isothiouroniummethylphenylthio)-3-cephem-4-carboxylate, trifluoroacetic acid salt], the figure is 4 µg/mL; as for `CC(C)(C)c1ccccc1SC1=C(C(=O)O)N2C(=O)[C@@H](NC(=O)Cc3ccccc3)[C@H]2SC1` [Cmpd 46, (7R)-7-[(Phenylacetyl)amino]-3-(2-tert-butylphenylthio)-3-cephem-4-carboxylic acid], 1 µg/mL (≈ 2.07 µM); as for `O=C(Cc1ccccc1)N[C@@H]1C(=O)N2C(C(=O)O)=C(Sc3ccccc3-c3ccco3)CS[C@H]12` [Cmpd 27, (7R)-7-[(Phenylacetyl)amino]-3-(2-(2-furyl)phenylthio)-3-cephem-4-carboxylic acid], 1 µg/mL (≈ 2.03 µM).
As for `COc1cccc(-n2nccc2SC2=C(C(=O)O)N3C(=O)[C@@H](NC(=O)Cc4ccccc4)[C@H]3SC2)c1` [Cmpd 117, (7R)-7-[(Phenylacetyl)amino]-3-(1-N-(3-methoxyphenyl)pyrazol-5-ylthio)-3-cephem-4-carboxylic acid], the figure is 8 µg/mL (≈ 15.3 µM); as for `O=C(Cc1ccccc1)N[C@@H]1C(=O)N2C(C(=O)O)=C(Sc3ccnn3-c3ccc(F)cc3)CS[C@H]12` [Cmpd 123, (7R)-7-[(Phenylacetyl)amino]-3-(1-N-(4-fluorophenyl)pyrazol-5-ylthio)-3-cephem-4-carboxylic acid], 4 µg/mL (≈ 7.83 µM); as for `N=C(N)NCc1ccccc1SC1=C(C(=O)O)N2C(=O)[C@@H](NC(=O)Cc3ccccc3)[C@H]2SC1` [Cmpd 128, (7R)-7-[(Phenylacetyl)amino]-3-(2-guanidiniummethylphenylthio)-3-cephem-4-carboxylate, inner salt], 8 µg/mL.
Regarding `N#CCC(=O)N[C@@H]1C(=O)N2C(C(=O)O)=C(Sc3ccccc3C#N)CS[C@H]12` [Cmpd 52, (7R)-7-[(Cyanoacetyl)amino]-3-(2-cyanophenylthio)-3-cephem-4-carboxylic acid], the MIC is 4 µg/mL (≈ 9.99 µM).
For the compound `Cn1nnnc1SCc1ccccc1SC1=C(C(=O)O)N2C(=O)[C@@H](NC(=O)Cc3ccccc3)[C@H]2SC1` [Cmpd 71], the MIC was 16 µg/mL (≈ 28.8 µM).
As for `N#Cc1ccc(SC2=C(C(=O)O)N3C(=O)[C@@H](NC(=O)Cc4ccccc4)[C@H]3SC2)c([N+](=O)[O-])c1` [Cmpd 49, (7R)-7-[(Phenylacetyl)amino]-3-(4-cyano-2-nitrophenylthio)-3-cephem-4-carboxylic acid], the figure is 4 µg/mL (≈ 8.06 µM); as for `COc1ccc(-n2nccc2SC2=C(C(=O)O)N3C(=O)[C@@H](NC(=O)Cc4ccccc4)[C@H]3SC2)cc1` [Cmpd 114, (7R)-7-[(Phenylacetyl)amino]-3-(1-N-(4-methoxyphenyl)pyrazol-5-ylthio)-3-cephem-4-carboxylic acid], 4 µg/mL (≈ 7.65 µM); as for `O=C1CNC(SCc2ccccc2SC2=C(C(=O)O)N3C(=O)[C@@H](NC(=O)Cc4ccccc4)[C@H]3SC2)=N1` [Cmpd 68], 8 µg/mL (≈ 14.4 µM).
As to `O=C(Cc1ccccc1)N[C@@H]1C(=O)N2C(C(=O)O)=C(Sc3ccc(-c4ccccc4)cc3)CS[C@H]12` [Cmpd 8, (7R)-7-[(Phenylacetyl)amino]-3-(4-biphenylthio)-3-cephem-4-carboxylic acid], the MIC was found to be 4 µg/mL (≈ 7.96 µM).
As for `CSCC(=O)N[C@@H]1C(=O)N2C(C(=O)O)=C(Sc3ccccc3CNC(=N)N)CS[C@H]12` [Cmpd 135, (7R)-7-[(Methylthioacetyl)amino]-3-(2-guanidiniummethylphenylthio)-3-cephem-4-carboxylate, inner salt], the figure is 8 µg/mL; as for `N=C(N)NC(=N)SCc1ccc(SC2=C(C(=O)O)N3C(=O)[C@@H](NC(=O)Cc4ccccc4)[C@H]3SC2)c(I)c1` [Cmpd 60, (7R)-7-[(Phenylacetyl)amino]-3-(4-(N-amidino)isothiouroniummethyl-2-iodophenylthio)-3-cephem-4-carboxylate, inner salt], 0.5 µg/mL; as for `O=C(Cc1ccccc1)N[C@@H]1C(=O)N2C(C(=O)O)=C(Sc3ccnn3-c3ccccn3)CS[C@H]12` [Cmpd 105, (7R)-7-[(Phenylacetyl)amino]-3-(1-N-(pyridin-2-yl)pyrazol-5-ylthio)-3-cephem-4-carboxylic acid], 4 µg/mL (≈ 8.1 µM).
As for `Nc1nc(/C(=N/O)C(=O)N[C@@H]2C(=O)N3C(C(=O)O)=C(Sc4ccccc4-c4ccccc4)CS[C@H]23)cs1` [Cmpd 42, (7R)-7-[(Z)-2-(aminothiazol-4-yl)-2-(hydroxyimino)acetamido]-3-(2-biphenylthio)-3-cephem-4-carboxylic acid], the figure is 4 µg/mL (≈ 7.22 µM); as for `O=C(Cc1ccccc1)N[C@@H]1C(=O)N2C(C(=O)O)=C(Sc3ccccc3CSc3ncccn3)CS[C@H]12` [Cmpd 75], 8 µg/mL (≈ 14.5 µM); as for `CSCC(=O)N[C@@H]1C(=O)N2C(C(=O)O)=C(Sc3ccccc3CSC(=N)NN)CS[C@H]12` [Cmpd 133, (7R)-7-[(methylthioacetyl)amino]-3-(2-(N-amino)isothiouroniummethylphenylthio)-3-cephem-4-carboxylate, inner salt], 2 to 4 µg/mL.
As for `O=C(Cc1ccccc1)N[C@@H]1C(=O)N2C(C(=O)O)=C(Sc3ccc(-c4ccccc4)cc3Br)CS[C@H]12` [Cmpd 11, (7R)-7-[(Phenylacetyl)amino]-3-(2-bromo-4-biphenylthio)-3-cephem-4-carboxylic acid], the figure is 1 µg/mL (≈ 1.72 µM); as for `O=C(Cc1ccccc1)N[C@@H]1C(=O)N2C(C(=O)O)=C(Sc3ccc(Br)cc3)CS[C@H]12` [Cmpd 5, (7R)-7-[(Phenylacetyl)amino]-3-(p-bromophenylthio)-3-cephem-4-carboxylic acid], 2 µg/mL (≈ 3.96 µM).
Consider `O=C(Cc1ccccc1)N[C@@H]1C(=O)N2C(C(=O)O)=C(Sc3ccccc3Br)CS[C@H]12` [Cmpd 4, (7R)-7-[(Phenylacetyl)amino]-3-(o-bromophenylthio)-3-cephem-4-carboxylic acid], for which the MIC lay within 1 to 2 µg/mL (≈ 1.98 to 3.96 µM).
As for `NCc1ccccc1CC(=O)N[C@@H]1C(=O)N2C(C(=O)O)=C(Sc3ccnn3-c3ccccc3)CS[C@H]12` [Cmpd 96, (7R)-7-[((2-aminomethylphenyl)acetyl)amino]-3-(1-N-phenylpyrazol-5-ylthio)-3-cephem-4-carboxylic acid], the figure is 8 µg/mL (≈ 15.3 µM); as for `CSc1ccccc1SC1=C(C(=O)O)N2C(=O)[C@@H](NC(=O)Cc3ccccc3)[C@H]2SC1` [Cmpd 44, (7R)-7-[(Phenylacetyl)amino]-3-(2-methylthiophenylthio)-3-cephem-4-carboxylic acid], 2 µg/mL (≈ 4.23 µM).
As for `O=C(Cc1ccccc1)N[C@@H]1C(=O)N2C(C(=O)[O-])=C(Sc3ccc[n+](Cc4ccccc4)c3-c3ccccc3)CS[C@H]12` [Cmpd 83, (7R)-7-[(Phenylacetyl)amino]-3-(2-phenyl-N-benzylpyridin-3-iumthio)-3-cephem-4-carboxylate], the figure is 4 µg/mL (≈ 6.74 µM); as for `NC(=NC1CC1)SCc1ccccc1SC1=C(C(=O)O)N2C(=O)[C@@H](NC(=O)Cc3ccccc3)[C@H]2SC1` [Cmpd 79, (7R)-7-[(Phenylacetyl)amino]-3-(2-N-cyclopropylisothiouroniummethylphenylthio)-3-cephem-4-carboxylate, inner salt], 4 µg/mL; as for `O=C(Cc1cccs1)N[C@@H]1C(=O)N2C(C(=O)O)=C(Sc3ccccc3Br)CS[C@H]12` [Cmpd 20, (7R)-7-[(2-Thienylacetyl)amino]-3-(o-bromophenylthio)-3-cephem-4-carboxylic acid], 0.5 µg/mL (≈ 0.978 µM).
As for `N=C(N)SCc1ccccc1SC1=C(C(=O)O)N2C(=O)[C@@H](NC(=O)CSCCCI)[C@H]2SC1` [Cmpd 134, (7R)-7-[(3-iodoprop-1-ylthioacetyl)amino]-3-(2-isothiouroniummethylphenylthio)-3-cephem-4-carboxylate, inner salt], the figure is 2 µg/mL.
